Laboratory results from ChEMBL document CHEMBL4004838, “Design and synthesis of novel phenyl -1, 4-beta-carboline-hybrid molecules as potential anticancer agents” (Eur J Med Chem, 2017).
Converted amounts (≈) assume the structure as drawn.

Key:
[1] = tested on: LNCaP; experiment: Cytotoxicity against human LNCAP cells assessed as cell viability after 72 hrs by MTT assay; assay type: functional, cell-based
[2] = tested on: MCF7; experiment: Cytotoxicity against human MCF7 cells assessed as cell viability after 72 hrs by MTT assay; assay type: functional, cell-based; conditions: MCF7, 72 h
[3] = tested on: HepG2; experiment: Cytotoxicity against human HepG2 cells assessed as cell viability after 72 hrs by MTT assay; assay type: functional, cell-based; conditions: HepG2, 72 h
[4] = molecular target: Kinesin-like protein KIF11 (Homo sapiens, UniProt P52732); experiment: Inhibition of EG5 (unknown origin)
Kinesin-like protein KIF11, sequence (P52732 whole entry): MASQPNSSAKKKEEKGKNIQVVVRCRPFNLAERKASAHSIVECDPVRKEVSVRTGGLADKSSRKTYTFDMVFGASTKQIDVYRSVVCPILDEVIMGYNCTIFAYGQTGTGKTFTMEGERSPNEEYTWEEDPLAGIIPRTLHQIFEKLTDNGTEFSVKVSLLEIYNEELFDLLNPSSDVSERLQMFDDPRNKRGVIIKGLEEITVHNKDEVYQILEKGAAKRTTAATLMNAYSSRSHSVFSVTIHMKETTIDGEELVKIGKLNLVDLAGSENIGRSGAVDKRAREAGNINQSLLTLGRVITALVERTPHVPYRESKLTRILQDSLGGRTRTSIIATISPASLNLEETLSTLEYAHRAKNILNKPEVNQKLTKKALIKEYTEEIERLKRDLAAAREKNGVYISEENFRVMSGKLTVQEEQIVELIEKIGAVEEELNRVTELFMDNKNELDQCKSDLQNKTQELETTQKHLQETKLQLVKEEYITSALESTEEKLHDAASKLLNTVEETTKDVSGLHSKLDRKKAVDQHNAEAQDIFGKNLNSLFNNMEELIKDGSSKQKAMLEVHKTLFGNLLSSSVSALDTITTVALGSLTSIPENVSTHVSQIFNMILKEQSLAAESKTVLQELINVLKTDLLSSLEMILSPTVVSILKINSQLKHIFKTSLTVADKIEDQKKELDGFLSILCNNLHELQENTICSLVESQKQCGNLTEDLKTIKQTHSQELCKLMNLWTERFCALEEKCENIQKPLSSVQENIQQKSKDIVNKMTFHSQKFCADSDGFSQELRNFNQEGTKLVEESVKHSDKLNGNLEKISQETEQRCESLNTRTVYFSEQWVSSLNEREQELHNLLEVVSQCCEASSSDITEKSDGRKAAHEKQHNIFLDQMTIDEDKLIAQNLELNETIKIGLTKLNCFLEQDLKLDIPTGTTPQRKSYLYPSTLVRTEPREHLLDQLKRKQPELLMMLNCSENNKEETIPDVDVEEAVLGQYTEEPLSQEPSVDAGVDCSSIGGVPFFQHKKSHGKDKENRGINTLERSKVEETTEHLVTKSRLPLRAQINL

Structure (SMILES) | IC50 [1] [µg/mL] | IC50 [2] [µg/mL] | IC50 [3] [µg/mL] | IC50 [4] [nM]
c1ccc2c3c([nH]c2c1)[C@H](c1ccc([C@@H]2NCCc4c2[nH]c2ccccc42)cc1)NCC3 | 13.3 (≈ 31.8 µM) | 5.19 (≈ 12.4 µM) | 6.22 (≈ 14.9 µM) | 
CCCCN1C(=O)[C@H]2Cc3c([nH]c4ccccc34)[C@@H](c3cccc(O)c3)N2C1=O |  |  |  | 800
COc1cccc2c1C(=O)c1c(O)c3c(c(O)c1C2=O)C[C@@](O)(C(=O)CO)C[C@@H]3O[C@H]1C[C@H](N)[C@H](O)[C@H](C)O1 [DOXORUBICIN] | 5.28 (≈ 9.71 µM) |  | 4.23 (≈ 7.78 µM) | 
c1ccc2c3c([nH]c2c1)[C@@H](c1ccc([C@H]2NCCc4c2[nH]c2ccccc42)cc1)NCC3 | 15.2 (≈ 36.4 µM) | 8.7 (≈ 20.8 µM) | 5.22 (≈ 12.5 µM) | 
